Measurements published in article PMC12320299 (Chemical Science, 2025).

Tests used:
[1] = Stability in aqueous solution by ESI-MS; type: physicochemical; conditions: 50 μM, share of total intensity
Method: In order to elucidate the transformation products of hydrolysis at micromolar concentrations, the four compounds were analogously incubated at 50 μM and analysed by ESI-MS[34] in a time-dependent manner after 1.5 h, 24 h and 72 h. The four complexes of this series were quite stable over 24 h (ESI, Fig. S12 ^†), but gradually released the NQ-ligands over the course of 72 h, which was observed by the formation of characteristic metal(cymene)-dimers containing pyrazole as bridging ligands. In addition, the observation of the free 3-Morph-NQ ligand after 24 h further supported the previously established activation mechanism (ESI, Fig. S12 ^†). A mass signal, which was probably generated by in-source fragmentation corresponded to pyrazole-release. […] In general, the intensity of the intact compounds after 24 h at 50 μM corresponded to approximately 40% of the total intensity of the mass spectrum in all four cases, not accounting for ionization efficiency (Fig. 2B).
Stability Study by UV-Vis Spectroscopy […]
80 µM. The stability of the compounds was monitored in a UV-Vis spectrophotometer (Perkin Elmer lambda 35 photometer) over 96 h by acquiring an UV-Vis spectrum every 30 mins. The percentage of the remaining intact compound was calculated by the ratio of the maximum absorbance of the tridentate complexes’ characteristic absorption band around 350– 370 nm after a given timepoint (A) compared to the one directly after dilution (A0). […]
Samples were diluted to a concentration of 2.5 µM with an organic eluent (49.5% v/v acetonitrile, 49.5% v/v methanol,1% v/v H2O), except ubiquitin containing samples which were diluted to the same concentration with acidified H2O (0.1% v/v formic acid). The samples were then analysed by flow-injection using an amazon speed ETD ion trap (Bruker Daltonics) in the positive ion mode over 0.4 min using the following experimental parameters: HV capillary ±4.5 kV, end plate offset –500 V, dry temp 180 °C, nebulizer 3 bar, dry gas 5 L min-1, scan range m/z 200–1400, target mass m/z 900, flow rate 5 µL min-1. […]

SW480 = test system: SW480; parameters: method as in earlier work; conditions: 96 h incubation; ref 48 (ESI Ref. 1); cited from earlier work
CH1/PA-1 = test system: CH1/PA-1; parameters: method as in Ref. 1 (ESI); conditions: 96 h incubation; ref Ref. 1 (ESI); cited from earlier work
SW480 cancer cells = experiment: Cell cycle analysis by flow cytometry (propidium iodide); type: cell-based, human; conditions: 24 h; 1a 12.5 to 50 nM; gemcitabine 10 nM
TP53 = experiment: Immunofluorescence staining of TP53; type: cell-based, human; conditions: SW480, 24 h; 1a 1 μM; etoposide 100 nM
Method: Cell Signaling Technology (Danvers, MA, USA), respectively. Horseradish-peroxidase-linked secondary antibodies, anti-mouse IgG (Fc specific) antibody (#7076S) and anti-rabbit IgG antibody (#7074S) were purchased from Cell Signaling Technology (Danvers, MA, USA). Anti-ß-actin (AC-15) (A5441, 1:2000) was obtained from Sigma-Aldrich (St. Louis, MO, USA).
SW480 and CT26 cells were grown at a density of 6.7x10^4 cells/mL on 8-well glass coverslips (80841, ibidi GmbH, Gräfelfing, Germany) in 300 µL complete media. The next day, cells were treated with respective compounds for 24 h. Cells were fixed with 4%(v/v) paraformaldehyde for 15 min at RT, followed by washing, blocking and permeabilization with 5%(w/v) BSA and […]
(1 : 500) were diluted in 1% BSA-0.3% Triton-X-100 in PBS and incubated overnight at 4 °C.
One well was incubated without primary antibody as background control. Cells were washed and stained with secondary goat anti-mouse AlexaFlour-488 (1 : 500 dilution, A-11029, Thermo Fisher Scientific) or goat anti-rabbit AlexaFlour-488 (1 : 500 dilution, A-11034, Thermo Fisher Scientific) antibodies for 1 h at RT. Following, cells were stained with 0.2% Wheat Germ Agglutinin (WGA)-Rhodamine (RL-1022, Vector Laboratories, Inc.) and 0.1% DAPI (62248, Thermo Fisher Scientific) for staining of plasma membrane and nuclei, respectively, according to manufacturer’s recommendations. […]

SMILES	Intact compound after 24 h, aqueous medium [1]	IC50 (SW480)	IC50 (CH1/PA-1)	cell cycle distribution (SW480 cancer cells)	TP53 immunofluorescence signal (TP53)
Cc1ccc(C(C)C)cc1.O=C1C(CN2CCOCC2)=C2[O][Ru][O]C2(n2cccn2)c2ccccc21 (stereo not drawn) [Compound 1b]	47%	33 ± 2 µM	150 ± 20 µM		
CCC1=C2[O][Ru][O]C2(n2cccn2)c2ccccc2C1=O.Cc1ccc(C(C)C)cc1 (stereo not drawn) [Compound 1a, [(3-ethyl-4-oxo-(pyrazolyl)-dihydronaphthalene)(cymene)ruthenium(II)]]	42%	0.046 ± 0.007 µM	62 ± 5 µM	dose-dependent increase in the S and G2/M phases	decisive loss of TP53 signal intensity
CCC1=C2[O][Os][O]C2(n2cccn2)c2ccccc2C1=O.Cc1ccc(C(C)C)cc1 (stereo not drawn) [Compound 2a]	45%				
